In PubChem BioAssay AID2305 (GlaxoSmithKline (GSK), 2010):

System: P. falciparum 3D7 growth, pLDH absorbance
Experiment: blood-stage malaria parasite growth potency – strain 3D7, dose response (AID 2305)

Structure (SMILES)	IC50 [nM]
CC[C@H]1CN2CC[C@H]1C[C@H]2[C@H](O)c1ccnc2ccc(OC)cc12	150
CC(Cc1ccc(Sc2ccccc2)cc1)NCC(O)c1cccc(C(F)(F)F)c1 (stereo unspecified)	590
COc1ccc(C(=O)NC(c2ccc(Cl)cc2Cl)c2cc(Cl)c3cccnc3c2O)cc1 (stereo unspecified)	500
COc1ccc(Cc2nc3c(n2C(C)=O)SC(c2ccc(Cl)c(Cl)c2)=NN3C(C)=O)cc1	810
O=C(NCc1cccnc1)C(c1cc2ccccc2o1)N1CCN(C(c2ccccc2)c2ccccc2)CC1 (stereo unspecified)	710
O=C(Nc1ccc2c(c1)CCNCC2)Nc1ccc2ccccc2c1	620
CC(C)(C)c1ccc(CN2CCC(NC(=O)c3cc(-c4cccc(C(F)(F)F)c4)cs3)C2)cc1 (stereo unspecified)	810
OC1CCC(Nc2ccc3ncc(-c4ccc5ccccc5c4)n3n2)CC1 (stereo unspecified)	980
Cc1c(-c2cccc(NC(=O)C(C)(C)Oc3ccc(Cl)cc3)c2)nc2ncccn12	170
CC(C)CNCc1cccc(-c2cccc(CN(CCCN3CCN(C)CC3)C(=O)Nc3ccccc3)c2)c1	1150
Cn1c(NC(=O)C2CCCN(C(=O)c3ccc(O)c(-c4ccc(Cl)c(Cl)c4)c3)C2)nc2ccccc21 (stereo unspecified)	750
COc1ccc(-c2cc3ncnc(N4CCN(CCN5CCCC5)CC4)c3s2)cc1	830
COc1cc2nccc(Nc3ccc4c(cnn4Cc4cccc(F)c4)c3)c2cc1OC	240
O=C(Nc1ccc(Cl)c(Cl)c1)N(Cc1ccccc1Br)C1CCNCC1	1030
Cc1ccc2c(C3=CCN(CCCCC4(C)C(=O)Nc5c(F)cccc54)CC3)c(C)[nH]c2c1 (stereo unspecified)	270
Cc1cc(NCCC(=O)NCCc2ccccc2)nc(NCCc2ccc(F)cc2)n1	1080
COc1ccc(-c2nc(NC(=O)CS(=O)(=O)c3ccc(F)cc3)sc2C)cc1	240
CC1CCN(CC[C@H]2CCCN2S(=O)(=O)c2cccc(NC(=O)c3ccc(-c4ccccc4)cc3)c2)CC1	1260
NCCCOc1cnc(-c2ccccc2)c2nc(-c3nonc3N)n(CCc3ccccc3)c12	1270
CC[C@H](C)CNC(=O)c1cncc(-c2cccc(CNCCCc3ccccc3)c2)c1	1170
CNC(=O)c1cc(S(=O)(=O)N2CCN(c3ccccn3)CC2)cs1	670

Structure (SMILES)	IC50 [nM]
NCCC(=O)Nc1ccc(-c2cnc3[nH]cc(-c4ccc(C(=O)O)cc4)c3c2)cn1	840
O=c1cc(NCCCNCc2cc(C(F)(F)F)ccc2Cl)[nH]c2ccccc12	1020
CC(C)c1nc2c(N)nc(N)nc2nc1N	1310
O=C(Cc1ccc(Cl)cc1)NC1CCN(c2ccnc3cc(Cl)ccc23)C1 (stereo unspecified)	230
CCc1ccc(C2CCN(CCCCNC(=O)c3ccc(-c4ccc(C(F)(F)F)cc4)cc3)CC2)c(OCCO)c1	410
NC(=O)c1ccsc1NC(=O)CNC(c1ccc(F)cc1)c1cccs1 (stereo unspecified)	950
COc1ccc(C=NNc2ccnc3ccccc23)c2ccccc12	700
O=C(NCCCCN1CCC(c2nc3ccccc3s2)CC1)c1cc2ccccc2[nH]1	1020
CC1(C)C(=O)Nc2ccc3c(c21)CC1SC(=O)NN=C31 (stereo unspecified)	1490
COC(=O)c1ccc(CC(C)NCC(O)c2cccc(Br)c2)cc1 (stereo unspecified)	690
O=C(Nc1cccc(N2CCC(NCc3cnn(-c4cccc(F)c4)c3)CC2)c1)c1ccncc1	1390
CC1CCC(NCc2c(O)ccc3ccccc23)CC1 (stereo unspecified)	770
O=C(Nc1ccc(Cl)cc1C(=O)Nc1cccc(F)c1)c1ccc([N+](=O)[O-])cc1	370
CS(=O)(=O)c1ccc(-n2nc(C(F)(F)F)cc2-c2ccc(/C=N/OCC(=O)O)o2)cc1	980
CCCN1CCN(CCCNC(=O)c2cc3c(-c4ccc(Cl)cc4)nn(C)c3s2)CC1	1100
COc1ccc(OCCCON)cc1	170
c1ccc2[nH]c(-c3ccc(-c4ccc(CN5CCCCC5)cc4)s3)nc2c1	740
COc1ccc(CCN(C)CCOc2ccc(NC(=O)c3cccc4cc5ccccc5nc34)cc2)cc1OC	680
FC(F)(F)c1ccc2nccc(NN=Cc3ccccc3Cl)c2c1	800
CC(Oc1ccc(NC(=O)c2cccs2)cc1)C(=O)c1ccc(Cl)cc1 (stereo unspecified)	770
